Measurements reported in patent US8653100B2 (AbbVie Inc., priority 2008, dated 2014).
Where a name gives a salt, the structure may show the parent alone.

Target: human GlyT1c (Homo sapiens (Human), UniProt P48067)
Experiment: [3H]-Glycine uptake into recombinant CHO cells expressing human GlyT1
Format: cell-based
Conditions: hGlyT1c_5_CHO cells, 200 nM [3H]-glycine
Description: [^3H]-Glycine uptake into recombinant CHO cells expressing human GlyT1: Human GlyT1c expressing recombinant hGlyT1c—5_CHO cells were plated at 20,000 cells per well in 96 well Cytostar-T scintillation microplates (Amersham Biosciences) and cultured to sub-confluency for 24 h. […] The plates were placed in a Wallac Microbeta (PerkinElmer) and continuously counted by solid phase scintillation spectrometry during up to 3 hours. […] IC50 calculations were made by four-parametric logistic nonlinear regression analysis (GraphPad Prism) using determinations within the range of linear increase of [^3H]-glycine incorporation between 60 and 120 min.

Chain of human GlyT1c (P48067 whole entry): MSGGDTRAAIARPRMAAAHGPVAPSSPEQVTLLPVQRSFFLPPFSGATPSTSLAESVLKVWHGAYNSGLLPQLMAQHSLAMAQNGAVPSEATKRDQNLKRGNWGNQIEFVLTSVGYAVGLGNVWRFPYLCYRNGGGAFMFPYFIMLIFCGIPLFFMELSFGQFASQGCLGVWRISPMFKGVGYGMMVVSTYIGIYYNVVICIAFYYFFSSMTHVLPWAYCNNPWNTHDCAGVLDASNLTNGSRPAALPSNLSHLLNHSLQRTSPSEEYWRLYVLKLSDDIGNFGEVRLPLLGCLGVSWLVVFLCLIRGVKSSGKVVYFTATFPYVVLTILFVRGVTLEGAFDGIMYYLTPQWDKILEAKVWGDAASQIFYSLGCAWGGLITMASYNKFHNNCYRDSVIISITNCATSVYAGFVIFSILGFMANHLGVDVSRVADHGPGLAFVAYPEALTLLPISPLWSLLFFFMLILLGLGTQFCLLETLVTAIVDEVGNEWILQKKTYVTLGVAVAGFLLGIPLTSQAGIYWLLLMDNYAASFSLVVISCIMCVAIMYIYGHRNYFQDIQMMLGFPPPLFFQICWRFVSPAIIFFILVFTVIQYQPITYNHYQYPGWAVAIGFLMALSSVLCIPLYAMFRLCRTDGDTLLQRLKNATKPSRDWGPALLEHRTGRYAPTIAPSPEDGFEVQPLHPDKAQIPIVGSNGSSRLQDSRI

Row | IC50 [µM] | Compound
1 | ≤ 1 | CCCS(=O)(=O)NCCOc1ccc2c(c1)C(C1(c3ccc(F)cc3)CCC1)N(N)CC2 (stereo not drawn) [Example 75, N-[2-({2-Amino-1-[1-(4-fluorophenyl)cyclobutyl]-1,2,3,4-tetrahydroisoquinolin-7-yl}oxy)ethyl]propane-1-sulfonamide]
2 | ≤ 100 | CCCCS(=O)(=O)NCCOc1ccc2c(c1)C(C1(c3ccc(Cl)cc3)CCC1)N(C(=O)NCC)CC2 (stereo not drawn) [Example 39, 7-[2-(Butane-1-sulfonylamino)-ethoxy]-1-[1-(4-chloro-phenyl)-cyclobutyl]-3,4-dihydro-1H-isoquinoline-2-carboxylic acid ethylamide hydrochloride]
3 | ≤ 0.1 | CCCS(=O)(=O)NCCOc1ccc2c(c1)C(C1(c3ccc(Cl)cc3)CC1)NCC2 (stereo not drawn) [Example 87, N-[2-({1-[1-(4-Chlorophenyl)cyclopropyl]-1,2,3,4-tetrahydroisoquinolin-7-yl}oxy)ethyl]propane-1-sulfonamide hydrochloride]
4 | ≤ 1 | O=S(=O)(NCCOc1ccc2c(c1)C(C1(c3ccc(Cl)cc3)CCC1)NCC2)c1ccc(NCc2ccccc2)nc1 (stereo not drawn) [Example 58, 6-(Benzylamino)-N-(2-(1-(1-(4-chlorophenyl)cyclobutyl)-1,2,3,4-tetrahydroisoquinolin-7-yloxy)ethyl)pyridine-3-sulfonamide hydrochloride]
5 | ≤ 0.1 | O=S(=O)(NCCOc1ccc2c(c1)C(C1(c3ccc(Cl)cc3)CCC1)NCC2)C1CCCNC1 (stereo not drawn) [Example 61, N-(2-(1-(1-(4-Chlorophenyl)cyclobutyl)-1,2,3,4-tetrahydroisoquinolin-7-yloxy)ethyl)piperidine-3-sulfonamide dihydrochloride]
6 | ≤ 1 | CCCS(=O)(=O)NCCN(CCOc1ccc2c(c1)C(C1(c3ccc(Cl)cc3)CCC1)NCC2)S(=O)(=O)CCC (stereo not drawn) [Example 45, Propane-1-sulfonic acid (2-{1-[1-(4-chloro-phenyl)-cyclobutyl]-1,2,3,4-tetrahydro-isoquinolin-7-yloxy}-ethyl)-[2-(propane-1-sulfonylamino)-ethyl]amide]
7 | ≤ 1 | Cc1nn(C)cc1S(=O)(=O)NCCOc1ccc2c(c1)C(C1(c3ccc(Cl)cc3)CCC1)NCC2 (stereo not drawn) [Example 35, 1,3-Dimethyl-1H-pyrazole-4-sulfonic acid (2-{1-[1-(4-chloro-phenyl)-cyclobutyl]-1,2,3,4-tetrahydro-isoquinolin-7-yloxy}-ethyl)-amide hydrochloride]
8 | ≤ 0.1 | Cn1cc(S(=O)(=O)NCCOc2ccc3c(c2)C(C2(c4ccc(Cl)cc4)CC2)NCC3)cn1 (stereo not drawn) [Example 86, N-[2-({1-[1-(4-Chlorophenyl)cyclopropyl]-1,2,3,4-tetrahydroisoquinolin-7-yl}oxy)ethyl]-1-methyl-1H-pyrazole-4-sulfonamide]
9 | ≤ 0.1 | O=S(=O)(NCCOc1ccc2c(c1)C(C1(c3ccc(Cl)cc3)CC1)NCC2)c1cccnc1 (stereo not drawn) [Example 85, N-[2-({1-[1-(4-Chlorophenyl)cyclopropyl]-1,2,3,4-tetrahydroisoquinolin-7-yl}oxy)ethyl]pyridine-3-sulfonamide]
10 | ≤ 10 | CCOC(=O)N1CCN(S(=O)(=O)NCCOc2ccc3c(c2)C(C2(c4ccc(Cl)cc4)CCC2)NCC3)CC1 (stereo not drawn) [Example 54, Ethyl 4-(N-(2-(1-(1-(4-chlorophenyl)cyclobutyl)-1,2,3,4-tetrahydroisoquinolin-7-yloxy)ethyl)sulfamoyl)piperazine-1-carboxylate hydrochloride]
11 | ≤ 100 | CC(C)C(=O)NCCOc1ccc2c(c1)C(C1(c3ccc(Cl)cc3)CCC1)NCC2 (stereo not drawn) [Example 5, N-(2-{1-[1-(4-Chloro-phenyl)-cyclobutyl]-1,2,3,4-tetrahydro-isoquinolin-7-yloxy}-ethyl)-isobutyramide]
12 | ≤ 0.1 | CCCS(=O)(=O)NCCOc1ccc2c(c1)C(C1(c3ccc(Cl)cc3)CCC1)NCC2(C)C (stereo not drawn) [Example 67, N-[2-({1-[1-(4-Chlorophenyl)cyclobutyl]-4,4-dimethyl-1,2,3,4-tetrahydroisoquinolin-7-yl}oxy)ethyl]propane-1-sulfonamide hydrochloride]
13 | ≤ 10 | CCCNc1ccc(S(=O)(=O)NCCOc2ccc3c(c2)C(C2(c4ccc(Cl)cc4)CCC2)NCC3)cn1 (stereo not drawn) [Example 59, N-(2-(1-(1-(4-Chlorophenyl)cyclobutyl)-1,2,3,4-tetrahydroisoquinolin-7-yloxy)ethyl)-6-(propylamino)pyridine-3-sulfonamide hydrochloride]
14 | ≤ 10 | Cc1nc(S(=O)(=O)NCCOc2ccc3c(c2)C(C2(c4ccc(Cl)cc4)CCC2)NCC3)cn1C (stereo not drawn) [Example 52, 1-(1-(4-Chlorophenyl)cyclobutyl)-7-(2-(1,2-dimethyl-1H-imidazole-4-sulfonamido)ethoxy)-1,2,3,4-tetrahydroisoquinolinium chloride]
15 | ≤ 0.1 | Cn1cnc(S(=O)(=O)NCCOc2ccc3c(c2)C(C2(c4ccc(Cl)cc4)CCC2)NCC3)c1 (stereo not drawn) [Example 51, 1-(1-(4-Chlorophenyl)cyclobutyl)-7-(2-(1-methyl-1H-imidazole-4-sulfonamido)ethoxy)-1,2,3,4-tetrahydroisoquinolinium chloride]
16 | ≤ 10 | CCCNC(=O)NCCOc1ccc2c(c1)C(C1(c3ccc(Cl)cc3)CCC1)NCC2 (stereo not drawn) [Example 33, 1-(2-{1-[1-(4-Chloro-phenyl)-cyclobutyl]-1,2,3,4-tetrahydro-isoquinolin-7-yloxy}-ethyl)-3-propyl-urea hydrochloride]
17 | ≤ 10 | CCCS(=O)(=O)NCCOc1ccc2c(c1)C(C1(c3ccc(F)cc3)CCC1)N(N=O)CC2 (stereo not drawn) [Example 74, N-[2-({1-[1-(4-Fluorophenyl)cyclobutyl]-2-nitroso-1,2,3,4-tetrahydroisoquinolin-7-yl}oxy)ethyl]propane-1-sulfonamide]
18 | ≤ 10 | O=C(COc1ccc2c(c1)C(C1(c3ccc(Cl)cc3)CCC1)NCC2)N1CCNCC1 (stereo not drawn) [Example 48, 2-{1-[1-(4-Chloro-phenyl)-cyclobutyl]-1,2,3,4-tetrahydro-isoquinolin-7-yloxy}-1-piperazin-1-yl-ethanone]
19 | ≤ 10 | O=S(=O)(CCCOc1ccc2c(c1)C(C1(c3ccc(Cl)cc3)CCC1)NCC2)N1CCOCC1 (stereo not drawn) [Example 81, 1-[1-(4-Chlorophenyl)cyclobutyl]-7-[3-(morpholin-4-ylsulfonyl)propoxy]-1,2,3,4-tetrahydroisoquinoline hydrochloride]
20 | ≤ 0.1 | CCCS(=O)(=O)NCCOc1ccc2c(c1)C(C1(c3ccc(Cl)cc3)CCC1)N(CC#N)CC2 (stereo not drawn) [Example 80, N-[2-({1-[1-(4-cChlorophenyl)cyclobutyl]-2-(cyanomethyl)-1,2,3,4-tetrahydroisoquinolin-7-yl}oxy)ethyl]propane-1-sulfonamide hydrochloride]
21 | ≤ 1 | CCCCS(=O)(=O)NCCOc1ccc2c(c1)C(C1(c3ccc(Cl)cc3)CCC1)N(C)CC2 (stereo not drawn) [Example 40, Butane-1-sulfonic acid (2-{1-[1-(4-chloro-phenyl)-cyclobutyl]-2-methyl-1,2,3,4-tetrahydro-isoquinolin-7-yloxy}-ethyl)-amide]
22 | ≤ 1 | CCCS(=O)(=O)NCCOc1ccc2c(c1)C(C1(c3ccc(Cl)cc3)CCC1)N(C(=N)NC#N)CC2 (stereo not drawn) [Example 46, 1-(1-(4-Chlorophenyl)cyclobutyl)-N-cyano-7-(2-(propylsulfonamido)ethoxy)-3,4-dihydroisoquinoline-2(1H)-carboximidamide]
23 | ≤ 10 | CCCS(=O)(=O)NCCOc1ccc2c(c1)CCNC2C1(c2ccc(Cl)cc2)CCC1 (stereo not drawn) [Example 68, N-[2-({1-[1-(4-Chlorophenyl)cyclobutyl]-1,2,3,4-tetrahydroisoquinolin-6-yl}oxy)ethyl]propane-1-sulfonamide hydrochloride]
24 | ≤ 100 | CCS(=O)(=O)N1CCN(c2ccc3c(c2)C(C2(c4ccc(Cl)cc4)CCC2)NCC3)CC1 (stereo not drawn) [Example 41, 1-[1-(4-Chloro-phenyl)-cyclobutyl]-7-(4-ethanesulfonyl-piperazin-1-yl)-1,2,3,4-tetrahydro-isoquinoline]
25 | ≤ 10 | CCCS(=O)(=O)NCCOc1ccc2c(c1)C(C1(c3cccc(Cl)c3)CCC1)N(CCN)CC2 (stereo not drawn) [Example 78, N-[2-({2-(2-Aminoethyl)-1-[1-(3-chlorophenyl)cyclobutyl]-1,2,3,4-tetrahydroisoquinolin-7-yl}oxy)ethyl]propane-1-sulfonamide bis(trifluoroacetate)]
26 | ≤ 100 | O=C(NCCOc1ccc2c(c1)C(C1(c3ccc(Cl)cc3)CCC1)NCC2)Nc1cccnc1 (stereo not drawn) [Example 42, 1-(2-{1-[1-(4-Chloro-phenyl)-cyclobutyl]-1,2,3,4-tetrahydro-isoquinolin-7-yloxy}-ethyl)-3-pyridin-3-yl-urea hydrochloride]
27 | ≤ 1 | CCCNS(=O)(=O)CCCOc1ccc2c(c1)C(C1(c3ccc(Cl)cc3)CCC1)NCC2 (stereo not drawn) [Example 82, 3-({1-[1-(4-Chlorophenyl)cyclobutyl]-1,2,3,4-tetrahydroisoquinolin-7-yl}oxy)-N-propylpropane-1-sulfonamide hydrochloride]

Row | Compound | IC50 [µM]
28 | CCCS(=O)(=O)NCCOc1ccc2c(c1)C(C1(c3ccc(Cl)cc3OC)CCC1)NCC2 (stereo not drawn) [Example 76, N-[2-({1-[1-(4-Chloro-2-methoxyphenyl)cyclobutyl]-1,2,3,4-tetrahydroisoquinolin-7-yl}oxy)ethyl]propane-1-sulfonamide hydrochloride] | ≤ 0.1
29 | O=S(=O)(NCCOc1ccc2c(c1)C(C1(c3ccc(Cl)cc3)CCC1)NCC2)N1CCNCC1 (stereo not drawn) [Example 55, N-(2-(1-(1-(4-Chlorophenyl)cyclobutyl)-1,2,3,4-tetrahydroisoquinolin-7-yloxy)ethyl)piperazine-1-sulfonamide dihydrochloride] | ≤ 10
30 | Cn1cc(S(=O)(=O)NCCOc2ccc3c(c2)C(C2(c4ccc(Cl)cc4)CC(F)(F)C2)NCC3)cn1 (stereo not drawn) [Example 43, 1-Methyl-1H-pyrazole-4-sulfonic acid (2-{1-[1-(4-chloro-phenyl)-3,3-difluoro-cyclobutyl]-1,2,3,4-tetrahydro-isoquinolin-7-yloxy}-ethyl)-amidehydrochloride] | ≤ 0.1
